Molecular target: T1, ERα (Homo sapiens, UniProt P03372)
T1 construct: host or cells: MCF7
T1 sequence (P03372 1-595): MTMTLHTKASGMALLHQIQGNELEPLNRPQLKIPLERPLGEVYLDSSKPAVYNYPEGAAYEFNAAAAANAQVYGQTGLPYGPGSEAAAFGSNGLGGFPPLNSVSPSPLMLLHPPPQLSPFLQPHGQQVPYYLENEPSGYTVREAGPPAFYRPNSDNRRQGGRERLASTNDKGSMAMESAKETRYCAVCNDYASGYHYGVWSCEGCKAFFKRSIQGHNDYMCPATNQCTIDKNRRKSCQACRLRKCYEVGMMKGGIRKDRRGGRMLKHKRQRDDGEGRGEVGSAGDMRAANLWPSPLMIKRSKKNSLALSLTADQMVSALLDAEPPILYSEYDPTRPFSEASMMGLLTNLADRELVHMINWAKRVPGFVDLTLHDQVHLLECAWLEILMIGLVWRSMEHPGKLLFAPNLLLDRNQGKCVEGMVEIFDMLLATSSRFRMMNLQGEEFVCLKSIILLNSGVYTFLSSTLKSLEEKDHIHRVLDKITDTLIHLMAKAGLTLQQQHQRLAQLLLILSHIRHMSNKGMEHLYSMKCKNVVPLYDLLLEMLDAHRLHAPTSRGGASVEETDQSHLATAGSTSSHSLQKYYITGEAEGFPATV
Experiment: Estrogen receptor degradation activity: breast cancer cell ERα in cell western assay (MCF7 cells)
Assay type: cell-based
Details: for % Degradation At 0.3 μM: 4 hours, relative to fulvestrant 0.1 μM positive control; for DC50: 4 hours post compound addition, concentration which degrades 50% of the estrogen receptor, read-out: Degradation IC50
Summary of the method: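 Compounds were applied to MCF7 cells in stripped-serum, phenol red-free medium for 4 h at final 0.3–0.0000018 μM, with fulvestrant (0.1 μM) as control. Value: IC50 (nM) for 50% ERα degradation.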

Row | SMILES | % Degradation At 0.3 μM [%] | DC50 [nM]
1 | C[C@H]1CC[C@@H](C2=C(c3ccc(CC4CN(CCCF)C4)cc3)c3ccc(C(=O)O)cc3CCC2)CC1 [Example 14, 9-(4-((1-(3-fluoropropyl)azetidin-3-yl)methyl)phenyl)-8-((1s,4s)-4-methylcyclohexyl)-6,7-dihydro-5H-benzo[7]annulene-3-carboxylic acid] | 80 | 0.8
2 | CC1CCc2cc(C(=O)O)ccc2C(c2ccc(CC3CN(CCCF)C3)cc2)=C1c1cccc(C(F)(F)F)c1 (racemic) [Example 333, 9-(4-((1-(3-fluoropropyl)azetidin-3-yl)methyl)phenyl)-7-methyl-8-(3-(trifluoromethyl)phenyl)-6,7-dihydro-5H-benzo[7]annulene-3-carboxylic acid] | 87 | 0.4
3 | O=C(O)c1ccc2c(c1)CCCC(c1ccc(Cl)cc1Cl)=C2c1ccc(CC2CN(CCC(F)F)C2)cc1 [Example 223, 8-(2,4-dichlorophenyl)-9-(4-((1-(3,3-difluoropropyl)azetidin-3-yl)methyl)phenyl)-6,7-dihydro-5H-benzo[7]annulene-3-carboxylic acid] | 92 | 0.2
4 | O=C(O)c1c(F)cc2c(c1F)CCCC(c1ccc(F)cc1Cl)=C2c1ccc(CC2CN(CCCF)C2)cc1 [Example 216, 8-(2-chloro-4-fluorophenyl)-2,4-difluoro-9-(4-((1-(3-fluoropropyl)azetidin-3-yl)methyl)phenyl)-6,7-dihydro-5H-benzo[7]annulene-3-carboxylic acid] | 83 | 13.2
5 | O=C(O)c1ccc2c(c1)CCCC(c1cccc(F)c1F)=C2c1ccc(CC2CN(CCCF)C2)cc1 [Example 22, 8-(2,3-difluorophenyl)-9-(4-((1-(3-fluoropropyl)azetidin-3-yl)methyl)phenyl)-6,7-dihydro-5H-benzo[7]annulene-3-carboxylic acid] | 92 | 0.3
6 | Cc1cc(Cl)ccc1C1=C(c2ccc(CC3CN(CCC(F)F)C3)cc2)c2ccc(C(=O)O)cc2CCC1 [Example 282, 8-(4-chloro-2-methylphenyl)-9-(4-((1-(3,3-difluoropropyl)azetidin-3-yl)methyl)phenyl)-6,7-dihydro-5H-benzo[7]annulene-3-carboxylic acid] | 86 | 0.4
7 | Cc1cc(Cl)ccc1C1=C(c2ccc(CC3CN(CCCF)C3)cc2)c2ccc(C(=O)O)cc2OCC1 [Example 263, 4-(4-chloro-2-methylphenyl)-5-(4-((1-(3-fluoropropyl)azetidin-3-yl)methyl)phenyl)-2,3-dihydrobenzo[b]oxepine-8-carboxylic acid] | 90 | 0.8
8 | O=C(O)c1ccc2c(c1)CCCC(c1ccc(Cl)cc1Cl)=C2c1ccc(CC2CN(CCCF)C2)cc1 [Example 2, 8-(2,4-dichlorophenyl)-9-(4-((1-(3-fluoropropyl)azetidin-3-yl)methyl)phenyl)-6,7-dihydro-5H-benzo[7]annulene-3-carboxylic Acid] | 91 | 0.3
9 | COc1c(Cl)cccc1C1=C(c2ccc(CC3CN(CCCF)C3)cc2)c2ccc(C(=O)O)cc2CCC1 [Example 334, 8-(3-chloro-2-methoxyphenyl)-9-(4-((1-(3-fluoropropyl)azetidin-3-yl)methyl)phenyl)-6,7-dihydro-5H-benzo[7]annulene-3-carboxylic acid] | 91 | 0.4
10 | O=C(O)c1ccc2c(c1)CCCC(c1ccc(Cl)cc1Cl)=C2c1ccc(CC2(O)CN(CCCF)C2)cc1 [Example 233, 8-(2,4-dichlorophenyl)-9-(4-((1-(3-fluoropropyl)-3-hydroxyazetidin-3-yl)methyl)phenyl)-6,7-dihydro-5H-benzo[7]annulene-3-carboxylic acid] | 85 | 0.5
11 | CCC1CCc2cc(C(=O)O)ccc2C(c2ccc(CC3CN(CCCF)C3)cc2)=C1c1ccc(Cl)cc1 (single isomer, unassigned) [Example 330, 8-(4-chlorophenyl)-7-ethyl-9-(4-((1-(3-fluoropropyl)azetidin-3-yl)methyl)phenyl)-6,7-dihydro-5H-benzo[7]annulene-3-carboxylic acid] | 91 | 7
12 | O=C(O)c1ccc2c(c1)CCCC(c1ccc(F)c(CC(F)(F)F)c1)=C2c1ccc(CC2CN(CCCF)C2)cc1 [Example 290, 8-(4-fluoro-3-(2,2,2-trifluoroethyl)phenyl)-9-(4-((1-(3-fluoropropyl)azetidin-3-yl)methyl)phenyl)-6,7-dihydro-5H-benzo[7]annulene-3-carboxylic acid] | 84 | 0.8
13 | O=C(O)c1ccc2c(c1)CCCC(c1ccc(F)cc1C(F)(F)F)=C2c1ccc(CC2CN(CCC(F)(F)F)C2)cc1 [Example 258, 8-(4-fluoro-2-(trifluoromethyl)phenyl)-9-(4-((1-(3,3,3-trifluoropropyl)azetidin-3-yl)methyl)phenyl)-6,7-dihydro-5H-benzo[7]annulene-3-carboxylic acid] | 87 | 0.8
14 | COc1cc(C2=C(c3ccc(CC4CN(CCCF)C4)cc3)c3ccc(C(=O)[O-])cc3CCC2)cc(C(F)(F)F)n1.[Na+] [Example 274, sodium 9-(4-((1-(3-fluoropropyl)azetidin-3-yl)methyl)phenyl)-8-(2-methoxy-6-(trifluoromethyl)pyridin-4-yl)-6,7-dihydro-5H-benzo[7]annulene-3-carboxylate] | 84 | 6.5
15 | O=C(O)c1ccc2c(c1)CCCC(c1cccc(CC(F)(F)F)c1)=C2c1ccc(CC2CN(CCCF)C2)cc1 [Example 298, 9-(4-((1-(3-fluoropropyl)azetidin-3-yl)methyl)phenyl)-8-(3-(2,2,2-trifluoroethyl)phenyl)-6,7-dihydro-5H-benzo[7]annulene-3-carboxylic acid] | 82 | 0.5
16 | O=C(O)c1ccc2c(c1)CCCC(c1cccc(Cl)c1F)=C2c1ccc(CC2CN(CCCF)C2)cc1 [Example 32, 8-(3-chloro-2-fluorophenyl)-9-(4-((1-(3-fluoropropyl)azetidin-3-yl)methyl)phenyl)-6,7-dihydro-5H-benzo[7]annulene-3-carboxylic acid] | 94 | 0.6
17 | O=C(O)c1ccc2c(c1)CCCC(c1ccc(F)cc1C(F)(F)F)=C2c1ccc(CC2(F)CN(CCCF)C2)cc1 [Example 241, 9-(4-((3-fluoro-1-(3-fluoropropyl)azetidin-3-yl)methyl)phenyl)-8-(4-fluoro-2-(trifluoromethyl)phenyl)-6,7-dihydro-5H-benzo[7]annulene-3-carboxylic acid] | 92 | 3.7
18 | O=C(O)c1ccc2c(c1)CCCC(C1=CC3(C1)CC(F)(F)C3)=C2c1ccc(CC2CN(CCCF)C2)cc1 [Example 50, 8-(6,6-difluorospiro[3.3]hept-1-en-2-yl)-9-(4-((1-(3-fluoropropyl)azetidin-3-yl)methyl)phenyl)-6,7-dihydro-5H-benzo[7]annulene-3-carboxylic acid] | 88 | 10.5
19 | O=C(O)c1ccc2c(c1)CCCC(c1nc(Cl)ccc1C(F)(F)F)=C2c1ccc(CC2CN(CCCF)C2)cc1 [Example 300, 8-(6-chloro-3-(trifluoromethyl)pyridin-2-yl)-9-(4-((1-(3-fluoropropyl)azetidin-3-yl)methyl)phenyl)-6,7-dihydro-5H-benzo[7]annulene-3-carboxylic acid] | 88 | 11.2
20 | COc1ccc(C2=C(c3ccc(CC4CN(CCCF)C4)cc3)c3ccc(C(=O)O)cc3CCC2)cn1 [Example 18, 9-(4-((1-(3-fluoropropyl)azetidin-3-yl)methyl)phenyl)-8-(6-methoxypyridin-3-yl)-6,7-dihydro-5H-benzo[7]annulene-3-carboxylic acid] | 95 | 1.6
21 | Cc1c(C2=C(c3ccc(CC4CN(CCC(F)F)C4)cc3)c3ccc(C(=O)O)cc3CCC2)cccc1C(F)(F)F [Example 287, 9-(4-((1-(3,3-difluoropropyl)azetidin-3-yl)methyl)phenyl)-8-(2-methyl-3-(trifluoromethyl)phenyl)-6,7-dihydro-5H-benzo[7]annulene-3-carboxylic acid] | 86 | 0.4
22 | COc1c(F)cccc1C1=C(c2ccc(CC3CN(CCCF)C3)cc2)c2ccc(C(=O)O)cc2CCC1 [Example 335, 8-(3-fluoro-2-methoxyphenyl)-9-(4-((1-(3-fluoropropyl)azetidin-3-yl)methyl)phenyl)-6,7-dihydro-5H-benzo[7]annulene-3-carboxylic acid] | 93 | 0.6
23 | O=C(O)c1c(F)cc2c(c1F)CCCC(c1ccccc1Cl)=C2c1ccc(CC2CN(CCCF)C2)cc1 [Example 224] | 82 | 43

Reference: patent US12595230B2, “Substituted 6,7-dihydro-5H-benzo[7]annulene compounds and their derivatives, processes for their preparation and therapeutic uses thereof” (Sanofi, priority 2020, dated 2026)
